Reference: PMC10313921, “A living ex vivo platform for functional, personalized brain cancer diagnosis” (Cell Reports Medicine, 2023)

Key:
[1] = test system: MB231Br (breast cancer metastasis to brain); test: Drug screening of MB231Br tumor foci on OBSCs; type: cell-based, human
[2] = test system: LN229 (established GBM line); test: Drug screening of LN229 tumor foci on OBSCs; type: cell-based, human
In short: (§1)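 Scores integrate therapeutic windows between tumor kill and slice toxicity (at DSS thresholds, EC50 slopes, curve areas) plus tumor-behavior parameters, giving −100 to +100. Tumor viability came from bioluminescence three days after drug or radiation, normalized to day-one fluorescence.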

[3] = test system: U373WT (wild-type established GBM line); test: Drug screening of U373WT tumor foci on OBSCs; type: cell-based, human; conditions: U373 WT on OBSCs
In short: as §1

[4] = test system: U373KO (RAD18 knockout of U373WT via CRISPR); test: Drug screening of U373KO tumor foci on OBSCs; type: cell-based, human; conditions: U373 KO on OBSCs
In short: as §1

[5] = test system: GBM8 (high-passage patient-derived GBM line); test: Drug screening of GBM8 tumor foci on OBSCs; type: cell-based, human; conditions: GBM8 on OBSCs
In short: as §1

[6] = test system: MS21 (low-passage patient-derived GBM line); test: Drug screening of MS21 tumor foci on OBSCs; type: cell-based, human; conditions: MS21 on OBSCs
In short: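 Bioluminescence viability readout, 3 d post-treatment, normalized to day-1 tumor fluorescence vs untreated; 6 drug concentrations or XRad, n = 4 foci per concentration. Drug sensitivity score sums weighted parameters comparing tumor kill with OBSC toxicity, ranging −100 to 100.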

[7] = test system: PDIPG (low-passage pediatric patient-derived line); test: Drug screening of PDIPG tumor foci on OBSCs; type: cell-based, human; conditions: PDIPG on OBSCs
In short: as §1

[8] = test system: PIS patient tumor tissue (intracranial sarcoma); test: Drug screening of uncultured patient tumor tissue PIS on OBSCs; type: cell-based, human; conditions: Homo sapiens, PIS on OBSCs
In short: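 Uncultured patient tumour tissue, transduced with mCherry-FLuc lentivirus, engrafted on organotypic brain slice cultures (OBSCs); six drug concentrations or X-ray dosing given one day after seeding, n = 4 foci per concentration. Bioluminescence with luciferin read three days post-treatment, normalised to day one and untreated controls; drug sensitivity score combines weighted therapeutic-window parameters versus OBSC toxicity (−100 to 100).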

[9] = test system: PGBM patient tumor tissue (pediatric GBM); test: Drug screening of uncultured patient tumor tissue PGBM on OBSCs; type: cell-based, human
Protocol: (§2) Tumor cells were seeded onto OBSCs 2h after slicing as described above. One day after tumor seeding, six concentrations of each drug were diluted in the media underneath each culture insert, or XRad was applied using an X-Rad 320 Precision X-ray machine (n = 4 tumor foci per concentration; n ≥ 24 tumor foci per drug per cell line). Three days after treatment, the bioluminescence of live tumor cells was measured using an AMI optical imager (Spectral Instruments) and dose-response curves were generated. Tumor survival was normalized to day one tumor fluorescence and compared to an untreated control group.
(§3) To engraft onto OBSCs, the cryopreserved/thawed or fresh brain tumor tissue was filtered through a 100 μm cell strainer. Each 50 mg of tissue was transfected with 1mL mcherry-FLuc Lentivirus at 1.5e7 vg/ml with 1μL polybrene for 4h at 37°C. After incubation, the brain tumor tissue was washed with PBS three times to remove the residual virus and reconstituted in PBS with a final volume of 150 μL. Then the tissue solution was engrafted atop OBSCs at ∼0.5 mg tissue in 3 μL of PBS on each hemisphere of the slice. The OBSC engrafted with patient tumor tissue was incubated at 37°C with 5% CO2 and 95% humidity. The BSM was changed after 24h and subsequently every 3 days. Tumor treatment studies were executed as described above for tumor lines. The viability of the patient tissue was measured by an AMI optical imaging system with the addition of 1.5 mg/mL luciferin underneath the culture insert.
(§4) Several weighted parameters were factored into an overall drug sensitivity score.
(§5) For DSS parameters 1–6, therapeutic windows were calculated by comparing OBSC toxicity and tumor response at the doses where tumor kill passed through the DSS parameter (Table S1 and S3). For DSS parameter 7, the therapeutic window was calculated by comparing the slopes through the tumor EC50 and the OBSC tox EC50. For DSS parameter 8, the therapeutic window was calculated by comparing the areas under tumor kill and OBSC tox curves. Normalized therapeutic window ratios for DSS parameters 1–8 within each drug-tumor-OBSC interaction were calculated in the following manner: within each window, values ranged from +1 to −1, where values approaching +1 signify increasing tumor kill relative to normal tissue toxicity, and values approaching −1 indicate agents where tumors remained highly viable while toxicity to the normal OBSC tissue was elevated. DSS parameters 9–11 were determined based on the behavior of the tumor in response to the drug, as defined above.
(§6) All individually weighed parameters were added together to generate the DSS. Overall DSS from 0 to 100 signify increasing efficacy in tumor kill relative to OBSC toxicity, while scores from 0 to −100 describe scenarios in which tumors thrive more effectively than OBSCs for a given treatment. Dose-response values were calculated via linear interpolation of raw data, not from best-fit curve equations.

[10] = test system: PGBM-R patient tumor tissue (recurrent tumor from same patient as PGBM); test: Drug screening of uncultured patient tumor tissue PGBM-R on OBSCs; type: cell-based, human
Protocol: as §2, §3, §4, §5, §6

[11] = test system: MG-II patient tumor tissue (WHO grade II meningioma); test: Drug screening of uncultured patient tumor tissue MG-II on OBSCs; type: cell-based; conditions: Homo sapiens
Protocol: as §2, §3, §4, §5, §6

[12] = area under the dose-response curve, trapezoidal rule
[13] = dose required to kill 10% of the tumor
[14] = dose required to kill 25% of the tumor
[15] = Homo sapiens, U373 MG, dose required to kill 50% of the tumor
[16] = Homo sapiens, U373 MG, dose required to kill 90% of the tumor
[17] = Homo sapiens, U373 MG, dosed day 1, survival via bioluminescence day 4, linear interpolation
[18] = dose required to kill 75% of the tumor
[19] = Homo sapiens, dose required to kill 90% of the tumor, read-out: EC90
[20] = Homo sapiens, dosed day 1, survival via bioluminescence day 4, linear interpolation, read-out: IC50
[21] = dose required to kill 50% of the tumor
[22] = dose required to kill 90% of the tumor

With Cn1nnc2c(C(N)=O)ncn2c1=O [Temozolomide] the EC50 ([1]; Homo sapiens, MB231BR on OBSCs, dose required to kill 50% of the tumor) was greater than 10 µM, the EC90 ([1]; Homo sapiens, MB231BR on OBSCs, dose required to kill 90% of the tumor) was greater than 10 µM and the IC50 ([1]; Homo sapiens, MB231Br on OBSCs, dosed day 1, survival via bioluminescence day 4, linear interpolation) was greater than 10 µM. The “Killing at highest dose” value ([1]; MB231BR on OBSCs) was -3.30E-01 fraction of tumor population killed, the AUC ([1]; MB231BR on OBSCs, area under the dose-response curve, trapezoidal rule) was 2.58E+03 and the “Killing at highest dose” value [2] was 3.50E-01 fraction of tumor population killed. It also gave an EC50 ([2]; Homo sapiens, LN-229, dose required to kill 50% of the tumor) greater than 10 µM, an EC90 ([2]; Homo sapiens, LN-229, dose required to kill 90% of the tumor) greater than 10 µM and an IC50 ([2]; Homo sapiens, LN-229, dosed day 1, survival via bioluminescence day 4, linear interpolation) greater than 10 µM. The AUC [2, 12] was 1.53E+03, the EC10 [2, 13] was 59.4 µM and the EC25 [2, 14] was 460 µM. For the same molecule, the Slope ([2]; slope through the EC50) was -4.00E-05, the EC50 [3, 15] was greater than 10 µM and the EC90 [3, 16] was greater than 10 µM. For the same molecule, the IC50 [3, 17] was greater than 10 µM, the “Killing at highest dose” value [3] was 2.20E-01 fraction of tumor population killed and the AUC [3, 12] was 1.52E+03. For the same molecule, the EC10 [3, 13] was 67.3 µM, the EC25 [3, 14] was 96.2 µM and the Slope ([3]; slope through the EC50) was -9.14E-06. The EC50 [4, 15] was 1160 µM, the EC90 [4, 16] was greater than 10 µM and the IC50 [4, 17] was 1160 µM. The “Killing at highest dose” value [4] was 5.40E-01 fraction of tumor population killed, the AUC [4, 12] was 8.89E+02 and the EC10 [4, 13] was 3.85 µM. The EC25 [4, 14] was 9.62 µM, the Slope ([4]; slope through the EC50) was -8.67E-04 and the “Killing at highest dose” value [5] was 1.00E+00 fraction of tumor population killed. The AUC [5, 12] was 9.52E+01, the EC10 [5, 13] was 1.52 µM and the EC25 [5, 14] was 3.79 µM. The EC75 [5, 18] was 31.2 µM, the Slope ([5]; slope through the EC50) was -6.60E-02 and the EC50 ([5]; Homo sapiens, dose required to kill 50% of the tumor, read-out: EC50) was 7.58 µM. The EC90 [5, 19] was 167 µM, the IC50 [5, 20] was 7.6 µM and the “Killing at highest dose” value [6] was -8.20E-01 fraction of tumor population killed. It also gave an AUC [6, 12] of 2.37E+03, an EC25 [6, 14] of 417 µM and an EC75 [6, 18] of 1250 µM. It also gave a Slope ([6]; slope through the EC50) of 5.47E-04, an EC90 [7, 19] greater than 10 µM and an IC50 [7, 20] greater than 10 µM. The “Killing at highest dose” value [7] was 2.90E-01 fraction of tumor population killed, the AUC [7, 12] was 1.88E+03 and the EC10 [7, 13] was 5 µM. It also gave an EC25 [7, 14] of 667 µM, a Slope ([7]; slope through the EC50) of -4.80E-05 and an EC50 [8, 21] greater than 100 µM. The EC90 [8, 22] was greater than 10 µM, the EC50 ([9]; Homo sapiens, PGBM on OBSCs, dose required to kill 50% of the tumor) was greater than 100 µM and the EC90 ([9]; Homo sapiens, PGBM on OBSCs, dose required to kill 90% of the tumor) was greater than 10 µM. For the same molecule, the “DSS (drug sensitivity score)” value ([9]; PGBM patient tissue, scale -100 to +100) was 26, the EC90 ([10]; Homo sapiens, PGBM-R on OBSCs, dose required to kill 90% of the tumor) was greater than 10 µM and the “DSS (drug sensitivity score)” value ([10]; PGBM-R patient tissue, scale -100 to +100) was 17. It also gave an EC50 [11, 21] greater than 100 µM and an EC90 [11, 22] greater than 10 µM.
